According to ChEMBL document CHEMBL4385620, “Inhibition of polypeptide N-acetyl-α-galactosaminyltransferases is an underlying mechanism of dietary polyphenols preventing colorectal tumorigenesis” (Bioorg Med Chem, 2019):
Activity calls are given as the source filed them. The calls are words filed in the database; no cut-off is given here.

What was measured:
[1] = biological target: T1, Polypeptide N-acetylgalactosaminyltransferase 2 (Homo sapiens, UniProt Q10471); test: Inhibition of catalytic activity of human recombinant FLAG-tagged ppGalNAcT2 expressed in HEK293T cells and using 5-FAM labelled-EA2 peptide as substrate incubated for 30 mins by HPLC-based enzyme assay
T1 sequence (Q10471 whole entry): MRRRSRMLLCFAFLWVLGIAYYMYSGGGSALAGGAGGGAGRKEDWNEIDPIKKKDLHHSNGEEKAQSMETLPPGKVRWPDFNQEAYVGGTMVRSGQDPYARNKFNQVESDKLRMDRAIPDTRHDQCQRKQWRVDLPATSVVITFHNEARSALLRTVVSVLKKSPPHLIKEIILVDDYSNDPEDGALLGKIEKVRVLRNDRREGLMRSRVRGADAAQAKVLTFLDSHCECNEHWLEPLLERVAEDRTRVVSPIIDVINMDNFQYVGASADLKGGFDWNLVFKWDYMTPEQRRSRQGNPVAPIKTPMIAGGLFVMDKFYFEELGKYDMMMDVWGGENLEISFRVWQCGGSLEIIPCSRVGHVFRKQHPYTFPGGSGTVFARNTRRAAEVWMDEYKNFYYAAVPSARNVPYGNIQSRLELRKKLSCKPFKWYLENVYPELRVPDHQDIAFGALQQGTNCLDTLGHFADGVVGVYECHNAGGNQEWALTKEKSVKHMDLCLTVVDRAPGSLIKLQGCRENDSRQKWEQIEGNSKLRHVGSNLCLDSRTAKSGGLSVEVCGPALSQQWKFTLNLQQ

[2] = biological target: T1, Polypeptide N-acetylgalactosaminyltransferase 2; test: Binding affinity of human recombinant FLAG-tagged ppGalNAcT2 expressed in HEK293 cells assessed as dissociation rate by SPR analysis
[3] = biological target: T2, Polypeptide N-acetylgalactosaminyltransferase 6 (Homo sapiens, UniProt Q8NCL4); test: Inhibition of catalytic activity of ppGalNAcT6 (unknown origin) using EA2 peptide as substrate incubated for 30 mins by HPLC-based enzyme assay
T2 sequence (Q8NCL4 whole entry): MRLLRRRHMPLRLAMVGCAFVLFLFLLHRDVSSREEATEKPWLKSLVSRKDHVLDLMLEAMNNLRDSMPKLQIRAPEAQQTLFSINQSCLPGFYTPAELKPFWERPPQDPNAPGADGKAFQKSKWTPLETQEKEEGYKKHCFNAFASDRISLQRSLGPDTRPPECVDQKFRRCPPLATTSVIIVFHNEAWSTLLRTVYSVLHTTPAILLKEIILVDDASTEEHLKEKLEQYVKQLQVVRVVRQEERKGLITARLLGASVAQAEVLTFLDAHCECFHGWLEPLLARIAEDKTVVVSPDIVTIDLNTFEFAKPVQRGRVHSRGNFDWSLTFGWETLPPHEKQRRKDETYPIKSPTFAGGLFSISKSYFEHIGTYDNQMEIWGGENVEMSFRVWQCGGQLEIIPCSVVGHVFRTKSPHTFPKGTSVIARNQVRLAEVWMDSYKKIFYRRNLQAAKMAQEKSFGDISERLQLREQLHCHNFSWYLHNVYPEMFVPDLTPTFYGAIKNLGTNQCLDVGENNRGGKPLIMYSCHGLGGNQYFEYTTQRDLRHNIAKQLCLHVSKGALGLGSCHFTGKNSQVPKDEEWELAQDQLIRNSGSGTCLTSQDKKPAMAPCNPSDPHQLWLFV

[4] = biological target: T3, UDP-N-acetylglucosamine--peptide N-acetylglucosaminyltransferase 110 kDa subunit (Homo sapiens, UniProt O15294); test: Inhibition of catalytic activity of OGT (unknown origin) using EA2 peptide as substrate incubated for 30 mins by HPLC-based enzyme assay
T3 sequence (O15294 whole entry): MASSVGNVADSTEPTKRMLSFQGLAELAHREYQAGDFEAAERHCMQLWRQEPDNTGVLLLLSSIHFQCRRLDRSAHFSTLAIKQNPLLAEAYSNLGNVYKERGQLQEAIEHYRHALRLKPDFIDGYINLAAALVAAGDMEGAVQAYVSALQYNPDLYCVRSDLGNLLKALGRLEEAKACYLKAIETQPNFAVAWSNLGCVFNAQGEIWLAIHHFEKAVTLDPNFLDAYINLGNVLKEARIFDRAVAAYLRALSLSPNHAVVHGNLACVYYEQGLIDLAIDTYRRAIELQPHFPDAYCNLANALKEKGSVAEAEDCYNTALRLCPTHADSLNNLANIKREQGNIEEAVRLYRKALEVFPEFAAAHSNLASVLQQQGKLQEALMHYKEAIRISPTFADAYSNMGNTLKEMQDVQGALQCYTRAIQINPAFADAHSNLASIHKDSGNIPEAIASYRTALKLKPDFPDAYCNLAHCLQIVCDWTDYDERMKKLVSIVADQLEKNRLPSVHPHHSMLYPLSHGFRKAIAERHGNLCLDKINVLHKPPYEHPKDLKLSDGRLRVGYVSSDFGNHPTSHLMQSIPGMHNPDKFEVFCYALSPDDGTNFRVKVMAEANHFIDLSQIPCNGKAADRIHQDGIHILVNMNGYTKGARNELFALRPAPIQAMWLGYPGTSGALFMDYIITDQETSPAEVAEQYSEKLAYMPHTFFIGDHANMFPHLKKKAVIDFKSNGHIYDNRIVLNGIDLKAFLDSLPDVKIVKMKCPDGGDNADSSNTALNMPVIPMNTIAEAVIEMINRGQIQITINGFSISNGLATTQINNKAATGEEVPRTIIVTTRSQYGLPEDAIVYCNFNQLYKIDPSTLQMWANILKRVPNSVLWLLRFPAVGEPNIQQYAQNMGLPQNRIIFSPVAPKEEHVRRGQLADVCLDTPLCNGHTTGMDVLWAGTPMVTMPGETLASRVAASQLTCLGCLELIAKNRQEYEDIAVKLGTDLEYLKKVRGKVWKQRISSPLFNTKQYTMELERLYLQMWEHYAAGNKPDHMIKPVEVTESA

[5] = biological target: T1, Polypeptide N-acetylgalactosaminyltransferase 2; test: Inhibition of catalytic activity of human recombinant FLAG-tagged ppGalNAcT2 using Muc5AC peptide as substrate incubated for 30 mins by HPLC-based enzyme assay
[6] = biological target: T1, Polypeptide N-acetylgalactosaminyltransferase 2; test: Inhibition of catalytic activity of human recombinant FLAG-tagged ppGalNAcT2 using Muc7 peptide as substrate incubated for 30 mins by HPLC-based enzyme assay
HT-29 [7] = test: Effect on N-glycans in human HT-29 cells assessed as change in ConA expression at 40 uM incubated for 48 hrs by Western blot analysis; format: ADME, cell-based; details: ht-29, 48 h
HT-29 [8] = test: Effect on ppGalNAcT6 expression level in human HT-29 cells at 40 uM incubated for 48 hrs by Q-PCR analysis; format: ADME, cell-based; details: ht-29, 48 h
HT-29 [9] = test: Effect on ppGalNAcT11 expression level in human HT-29 cells at 40 uM incubated for 48 hrs by Q-PCR analysis; format: ADME, cell-based; details: ht-29, 48 h
HT-29 [10] = test: Effect on ppGalNAcT13 expression level in human HT-29 cells at 40 uM incubated for 48 hrs by Q-PCR analysis; format: ADME, cell-based; details: ht-29, 48 h
Cricetulus griseus = organism: Cricetulus griseus; test: Inhibition of ppGalNAcT2 in Chinese hamster ldlD cell lysates assessed as reduction in O-GalNAc glycosylation by measuring glycans VVA lectin expression at 0.5 to 4 uM incubated for 30 mins by Western blot analysis; format: subcellular; details: Lysate
[11] = biological target: T1, Polypeptide N-acetylgalactosaminyltransferase 2; test: Inhibition of ppGalNAcT2 in human Jurkat cells assessed as reduction in O-GalNAc glycosylation by measuring VVA lectin expression at 40 uM incubated for 48 hrs by Western blot analysis; format: cell-based
[12] = biological target: T1, Polypeptide N-acetylgalactosaminyltransferase 2; test: Inhibition of ppGalNAcT2 in human HCT116 cells assessed as reduction in O-GalNAc glycosylation by measuring VVA lectin expression at 40 uM incubated for 48 hrs by Western blot analysis; format: cell-based
[13] = biological target: T1, Polypeptide N-acetylgalactosaminyltransferase 2; test: Inhibition of ppGalNAcT2 in human SW480 cells assessed as reduction in O-GalNAc glycosylation by measuring VVA lectin expression at 40 uM incubated for 48 hrs by Western blot analysis; format: cell-based
HCT-116 = test: Anti-invasive activity in human HCT116 cells at 40 uM incubated for 48 hrs by crystal violet staining based method; format: functional, cell-based
[14] = biological target: T1, Polypeptide N-acetylgalactosaminyltransferase 2; test: Inhibition of ppGalNAcT2 in human HT-29 cells assessed as reduction in PDPN O-GalNAc glycosylation by at 40 uM incubated for 48 hrs by jacalin lectin based immunoprecipitation analysis; format: cell-based
HT-29 [15] = test: Effect on ppGalNAcT4 expression level in human HT-29 cells at 40 uM incubated for 48 hrs by Western blot analysis; format: ADME, cell-based; details: ht-29, 48 h

**Q.** How did the IC50 [1] turn out when `O=c1oc2c(O)c(O)ccc2c2cc(O)c(O)cc12` was run?
**A.** Its IC50 is 760 nM.

**Q.** And the koff [2]?
**A.** The koff was 1.04 ×10⁻³ /s.

**Q.** And the IC50 [3]?
**A.** Its IC50 is 1830 nM.

**Q.** And the IC50 [4]?
**A.** The IC50 was over 100 µM.

**Q.** And the IC50 [5]?
**A.** The IC50 was 2070 nM.

**Q.** And the IC50 [6]?
**A.** The IC50 was 1250 nM.

**Q.** And the Activity (HT-29 [7])?
**A.** The Activity was “Non-Toxic”.

**Q.** What about the Activity (HT-29 [8]) of the same molecule?
**A.** The Activity was “Non-Toxic”.

**Q.** What about the Activity (HT-29 [9]) of the same molecule?
**A.** The Activity was “Non-Toxic”.

**Q.** What about the Activity (HT-29 [10]) of the same molecule?
**A.** Its Activity is “Non-Toxic”.

**Q.** What about the inhibition (Cricetulus griseus) of the same molecule?
**A.** Its inhibition is “Dose-dependent effect”.

**Q.** And the inhibition [11]?
**A.** The inhibition was “Active”.

**Q.** And the inhibition [12]?
**A.** Its inhibition is “Active”.

**Q.** And the inhibition [13]?
**A.** The inhibition was “Active”.

**Q.** What about the Activity (HCT-116) of the same molecule?
**A.** Its Activity is “Active”.

**Q.** What about the inhibition [14] of the same molecule?
**A.** The inhibition was “Active”.

**Q.** What about the Activity (HT-29 [15]) of the same molecule?
**A.** The Activity was “Non-Toxic”.
